According to ChEMBL document CHEMBL1137959, “Two new bacterial DNA primase inhibitors from the plant Polygonum cuspidatum” (Bioorg Med Chem Lett, 2004):

What was measured:
Nucleic Acid [1] = test: Inhibitory activity against bacterial DNA primase; type: nucleic-acid assay, Escherichia coli
Nucleic Acid [2] = test: Inhibitory activity against bacterial DNA primase in fluorescent intercalator dye displacement assay (FID); type: nucleic-acid assay, Escherichia coli

IC50 (Nucleic Acid [1]) [µM] | IC50 (Nucleic Acid [2]) [µM] | Structure (SMILES)
4 | 4 | O=C(O[C@@H]1[C@@H](Oc2cc(O)cc(/C=C/c3ccc(O)cc3)c2)O[C@@H](CO)[C@@H](O)[C@@H]1O)c1cc(O)c(O)c(O)c1
5 | – | O=C(OC[C@@H]1O[C@H](Oc2cc(O)cc(/C=C/c3ccc(O)cc3)c2)[C@@H](O)[C@@H](O)[C@@H]1O)c1cc(O)c(O)c(O)c1
